Series [1] deals with P388. Nature of the series: Antitumor activity against mouse P388 cells. Type of series: functional, cell-based.
Series [2] in a line: (§1) Toxicity against Artemia salina. Type of series: organism-based. Conditions: in vivo.
Series [3] has as its system Lymphocyte. Nature of the series: Immunosuppressive activity against lymphocyte by mixed lymphocyte reaction assay. The series is classed as functional, cell-based.
Series [4] concerns Artemia salina. The series is described as §1. The series is classed as organism-based. Conditions: in vivo.

The results in this text go back to ChEMBL document CHEMBL1149741, “Further bioactive acetylenic compounds from the Caribbean sponge Cribrochalina vasculum” (J Nat Prod, 1992).

Values after ≈ are worked out from the molar mass of the structure shown. Active and inactive are the calls of the source. The rule behind the calls is not given here.

By LC50 is commonly meant the concentration lethal to half of the exposed cells or organisms. A higher LC50 goes with lower toxicity. `C#C[C@H](O)/C=C/CCCCCCCCCCCCCC(C)C`: the outcome in series [1] and in series [3] was Active. In addition, the LC50 in series [2] was determined as 0.8 µg/mL (≈ 2.61 µM).

The compound `C#C/C=C/CCCCCCCCCC/C=C\CCCCCC` yielded an LC50 in series [2] of 1.1 µg/mL (≈ 3.64 µM).

As to `C#C[C@H](O)/C=C/CCCCCCCCC(C)CCCCCCCC` (some centres undefined), in series [2], the LC50 stood at 0.03 µg/mL (≈ 0.0897 µM).

On to `C#CC(O)/C=C/CCCCCCCCCCCCCCC` (centres undefined), for which the result in series [1] and in series [3] was Active. In addition, the Activity entry in series [4] is on record as “Toxic”.

Compound `C#C[C@H](O)CCCCCCCCCCCCCCCC(C)C` returned an LC50 in series [2] of 1 µg/mL (≈ 3.24 µM).

Turning to `C#CC(O)/C=C/CCCCCCCCC/C=C/CCCCC(C)C` (centres undefined), the outcome in series [1] and in series [3] was Active. In addition, in series [4], the Activity result was “Toxic”.

As for `C#C[C@H](O)/C=C/CCCCCCCCCCC(C)CCCC` (some centres undefined), the result in series [1] and in series [3] was Active. Also, the LC50 in series [2] was found to be 0.8 µg/mL (≈ 2.61 µM).

`C#C[C@H](O)/C=C/CCCCCCCCC/C=C/CCCCCC`: the result in series [1] and in series [3] was Active. Moreover, in series [2], the LC50 was found to be 0.4 µg/mL (≈ 1.26 µM).

In series [2], `C#C[C@H](O)CCCCCCCCCCCCC(C)CCCC` (some centres undefined) yielded an LC50 of 1.2 µg/mL (≈ 3.89 µM).
